In the NIST ThermoML archive (doi:10.1021/acs.jced.5b00613):

Experiment: xn = mol fraction of the nth substance listed
Settings: Liquid, Vibrating tube method

CCCCCCCCCC [decane] + CCCCCC
mass density [kg/m3]
Settings	100 kPa	1000 kPa	5000 kPa	10000 kPa	20000 kPa	30000 kPa	40000 kPa	50000 kPa	60000 kPa
278.15 K, x2 = 0.1992	732.4	733	735.8	739.2	745.6	751.5	756.9	761.9	767
278.15 K, x2 = 0.3968	721.4	722.1	725.1	728.7	735.1	741.4	747	752.2	757.4
278.15 K, x2 = 0.4978	715.4	716	719.2	722.8	729.5	735.7	741.4	746.8	752
278.15 K, x2 = 0.5957	708.5	709.1	712.3	716	722.8	729.3	735.1	740.6	745.8
278.15 K, x2 = 0.7978	692.6	693.3	696.8	700.6	707.9	714.7	720.8	726.4	731.9
298.15 K, x2 = 0.1992	716.8	717.5	720.7	724.6	731.7	738.1	744	749.6	755
298.15 K, x2 = 0.3968	705.6	706.3	709.7	713.8	721	727.9	734.2	739.9	745.4
298.15 K, x2 = 0.4978	699.1	699.6	703.1	707.3	714.8	721.7	728	733.8	739.4
298.15 K, x2 = 0.5957	692.1	692.7	696.2	700.5	708.2	715.2	721.6	727.6	733.3
298.15 K, x2 = 0.7978	675.5	676.3	680.3	684.8	693	700.4	707.2	713.4	719.3
323.15 K, x2 = 0.1992	697.5	698.6	702.3	706.7	714.8	722.1	728.6	734.9	740.7
323.15 K, x2 = 0.3968	685.4	686.5	690.5	695.3	703.7	711.3	718.2	724.6	730.6
323.15 K, x2 = 0.4978	678.2	679.4	683.6	688.3	697.1	704.9	711.9	718.5	724.6
323.15 K, x2 = 0.5957	670.9	672.1	676.3	681.3	690.3	698.3	705.5	712.1	718.4
323.15 K, x2 = 0.7978	653.4	654.6	659.3	664.7	674.3	682.8	690.4	697.4	703.9
348.15 K, x2 = 0.1992	677	678.1	682.5	–	–	–	–	–	–
348.15 K, x2 = 0.3968	–	665.7	670.4	–	–	–	–	–	–
348.15 K, x2 = 0.4978	–	658.2	663.2	–	–	–	–	–	–
348.15 K, x2 = 0.5957	–	650.3	655.5	–	–	–	–	–	–
348.15 K, x2 = 0.7978	–	631.9	–	–	–	–	–	–	–
